What was measured:
[1] = target: T1, Recombinant human p38α (Homo sapiens, UniProt Q16539); test: Fluorescence anisotropy kinase binding assay (standard or low volume); details: 12 nM p38α, 5 nM fluorescent ligand
T1 construct: GST; made in house
How it was run: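 Activated GST-tagged recombinant human p38α (pre-activated with MBP-MKK6 DD) at 12 nM final with 5 nM rhodamine green-labelled pyridinylimidazole tracer in pH 7.5 HEPES/CHAPS/DTT/MgCl2 buffer. Test compound 0.28 nM–16.6 μM or 0.02 nM–25 μM final, 3% or 1.7% DMSO; 30–60 min at room temperature. Fluorescence anisotropy read (ex 485/em 535 nm) for Ki.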

[2] = test system: influx of neutrophils to the lung in LPS-challenged rats; test: Rat LPS neutrophilia model; assay type: in vivo; details: LPS aerosol, lavage 4 hours later, in at least one of the range of conditions tested, significance p<0.05
How it was run: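 Rats pretreated 15 min–24 h with compound or vehicle, given intratracheally (200 ul, isoflurane anaesthesia) as suspension in various vehicles, then exposed to LPS aerosol (100 ug/ml) 15 min. BAL 4 h later; Diffquick-stained differential counts give % inhibition of neutrophils versus no-compound controls at a set concentration and pretreatment time.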

[3] = test system: IL-8 production by human neutrophils; test: TNF-stimulated IL-8 production from human neutrophils; assay type: cell-based; details: Neutrophil, bound, not more than 50% inhibition at 100 nM, read-out: IC50

T1 sequence (Q16539 whole entry): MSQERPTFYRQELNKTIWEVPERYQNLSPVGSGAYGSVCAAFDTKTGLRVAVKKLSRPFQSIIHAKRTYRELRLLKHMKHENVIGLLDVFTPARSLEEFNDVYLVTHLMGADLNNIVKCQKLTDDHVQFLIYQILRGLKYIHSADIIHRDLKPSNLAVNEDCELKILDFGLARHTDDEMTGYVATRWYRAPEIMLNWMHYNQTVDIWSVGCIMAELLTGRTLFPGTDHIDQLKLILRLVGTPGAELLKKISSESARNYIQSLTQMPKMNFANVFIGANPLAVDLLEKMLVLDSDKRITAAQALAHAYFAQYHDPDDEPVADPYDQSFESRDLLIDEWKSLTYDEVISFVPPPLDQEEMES

Row | Structure (SMILES) | melting point | active in the assay (pIC50, p38α binding) [1] | inhibition of neutrophilia [2] | IC50 [3]
1 | Cc1ccc(C(=O)NCc2ccccc2)cc1-c1nc(NC2CCNCC2)nc2c1CNC(=O)N2c1c(F)cccc1F [21(b), 3-[8-(2,6-Difluorophenyl)-7-oxo-2-(4-piperidinylamino)-5,6,7,8-tetrahydropyrimido[4,5-d]pyrimidin-4-yl]-4-methyl-N-(phenylmethyl)benzamide] | 172 to 176 °C (dec.) | active | – | –
2 | Cc1ccc(C(=O)Nc2ccc(C)c(-c3nc(OC(C)C)nc4c3CNC(=O)N4c3c(F)cccc3F)c2)cc1F [Example 26, N-(3-{8-(2,6-difluorophenyl)-2-[(1-methylethyl)oxy]-7-oxo-5,6,7,8-tetrahydropyrimido[4,5-d]pyrimidin-4-yl}-4-methylphenyl)-3-fluoro-4-methylbenzamide] | 253.5 to 255.4 °C | – | inactive | –
3 | CNC(=O)c1ccc(C)c(-c2nc(N3CCC(N4CCCCC4)CC3)nc3c2CNC(=O)N3c2c(F)cccc2F)c1 [Example 176, 3-[2-(1,4′-bipiperidin-1′-yl)-8-(2,6-difluorophenyl)-7-oxo-5,6,7,8-tetrahydropyrimido[4,5-d]pyrimidin-4-yl]-N,4-dimethylbenzamide] | 179 to 184 °C (dec.) | – | statistically nonsignificant inhibition of neutrophilia | –
4 | Cc1ccc(C(=O)NCc2ccccc2)cc1-c1nc(NCCNC(C)C)nc2c1CNC(=O)N2c1c(F)cccc1F [Example 20, 3-[8-(2,6-Difluorophenyl)-2-({2-[(1-methylethyl)amino]ethyl}amino)-7-oxo-5,6,7,8-tetrahydropyrimido[4,5-d]pyrimidin-4-yl]-4-methyl-N-(phenylmethyl)benzamide] | 133 to 137 °C | active | – | –
5 | Cc1ccc(C(=O)NCc2ccccc2)cc1-c1nc(NCCCN(C)C)nc2c1CNC(=O)N2c1c(F)cccc1F [Example 151] | 141 to 144 °C | – | statistically nonsignificant inhibition of neutrophilia | –
6 | CNCCNc1nc(-c2cc(C(=O)NCc3ccccc3)ccc2C)c2c(n1)N(c1c(F)cccc1F)C(=O)NC2 [19(b), 3-(8-(2,6-Difluorophenyl)-2-{[2-(methylamino)ethyl]amino}-7-oxo-5,6,7,8-tetrahydropyrimido[4,5-d]pyrimidin-4-yl)-4-methyl-N-(phenylmethyl)benzamide] | 157 to 161 °C | active | – | –
7 | CCN(CC)CCCNc1nc(-c2cc(C(=O)NC)ccc2C)c2c(n1)N(c1c(F)cccc1F)C(=O)NC2 [Example 172, 3-[2-{[3-(diethylamino)propyl]amino}-8-(2,6-difluorophenyl)-7-oxo-5,6,7,8-tetrahydropyrimido[4,5-d]pyrimidin-4-yl]-N,4-dimethylbenzamide] | 133 to 136 °C | – | statistically nonsignificant inhibition of neutrophilia | –
8 | Cc1ccc(C(=O)Nc2ccc(C)c(-c3nc(N(C)C)nc4c3CNC(=O)N4c3c(F)cccc3F)c2)cc1F [Example 28, N-{3-[8-(2,6-difluorophenyl)-2-(dimethylamino)-7-oxo-5,6,7,8-tetrahydropyrimido[4,5-d]pyrimidin-4-yl]-4-methylphenyl}-3-fluoro-4-methylbenzamide] | 257.8 to 264.3 °C | active | statistically nonsignificant inhibition of neutrophilia | –
9 | Cc1ccc(C(=O)N(C)C)cc1-c1nc(NCCN(C)C)nc2c1CNC(=O)N2c1c(F)cccc1F [Example 152] | 138 to 142 °C | – | – | > 100 nM
10 | Cc1ccc(C(=O)Nc2ccc(C)c(-c3nc(N4CCC(N)CC4)nc4c3CNC(=O)N4c3c(F)cccc3F)c2)cc1F [Example 24, N-{3-[2-(4-amino-1-piperidinyl)-8-(2,6-difluorophenyl)-7-oxo-5,6,7,8-tetrahydropyrimido[4,5-d]pyrimidin-4-yl]-4-methylphenyl}-3-fluoro-4-methylbenzamide] | 240 °C | – | statistically nonsignificant inhibition of neutrophilia | –
11 | Cc1ccc(C(=O)NCc2ccccc2)cc1-c1nc(N2CCC(N)CC2)nc2c1CNC(=O)N2c1c(F)cccc1F [15(c), 3-[2-(4-Amino-1-piperidinyl)-8-(2,6-difluorophenyl)-7-oxo-5,6,7,8-tetrahydropyrimido[4,5-d]pyrimidin-4-yl]-4-methyl-N-(phenylmethyl)benzamide] | 210 to 266 °C (dec.) | active | – | –
12 | CNC(=O)c1ccc(C)c(-c2nc(N(C)CCCN(C)C)nc3c2CNC(=O)N3c2c(F)cccc2F)c1 [Example 174, 3-{8-(2,6-difluorophenyl)-2-[[3-(dimethylamino)propyl](methyl)amino]-7-oxo-5,6,7,8-tetrahydropyrimido[4,5-d]pyrimidin-4-yl}-dimethylbenzamide] | 163 to 165 °C | – | inactive | –
13 | COc1nc(-c2cc(NC(=O)c3ccsc3)ccc2C)c2c(n1)N(c1c(F)cccc1F)C(=O)NC2 [10(e), N-{3-[8-(2,6-difluorophenyl)-2-(methyloxy)-7-oxo-5,6,7,8-tetrahydropyrimido-[4,5-d]pyrimidin-4-yl]-4-methylphenyl}-3-thiophenecarboxamide] | 225 to 228 °C (dec.) | active | – | –
14 | Cc1ccc(NC(=O)c2ccsc2)cc1-c1nc(N2CCC(N)CC2)nc2c1CNC(=O)N2c1c(F)cccc1F [Example 11, N-{3-[2-(4-amino-1-piperidinyl)-8-(2,6-difluorophenyl)-7-oxo-5,6,7,8-tetrahydropyrimido[4,5-d]pyrimidin-4-yl]-4-methylphenyl}-3-thiophenecarboxamide] | 250 to 261 °C (dec.) | – | statistically significant inhibition of neutrophilia | –
15 | CNC(=O)c1ccc(C)c(-c2nc(NCCN(C)C)nc3c2CNC(=O)N3c2c(F)cccc2F)c1 [Example 163(c), 3-(8-(2,6-difluorophenyl)-2-{[2-(dimethylamino)ethyl]amino}-7-oxo-5,6,7,8-tetrahydropyrimido[4,5-d]-pyrimidin-4-yl)-N,4-dimethylbenzamide] | 155 to 158 °C (dec.) | active | – | –
16 | CNC(=O)c1ccc(C)c(-c2nc(N3CCC(N4CCCC4)CC3)nc3c2CNC(=O)N3c2c(F)cccc2F)c1 [Example 175, 3-{8-(2,6-difluorophenyl)-7-oxo-2-[4-(1-pyrrolidinyl)-1-piperidinyl]-5,6,7,8-tetrahydropyrimido[4,5-d]pyrimidin-4-yl}-N,4-dimethylbenzamide] | 189 to 194 °C (dec.) | – | inactive | –
17 | Cc1ccc(C(=O)NCc2ccccc2)cc1-c1nc(NC2CCN(C)CC2)nc2c1CNC(=O)N2c1c(F)cccc1F [Example 22, 3-[8-(2,6-Difluorophenyl)-2-[(1-methyl-4-piperidinyl)amino]-7-oxo-5,6,7,8-tetrahydropyrimido[4′-d]pyrimidin-4-yl]-4-methyl-N-(phenylmethyl)benzamide] | 152 to 154 °C (dec.) | active | – | –
18 | Cc1ccc(C(=O)NCc2ccccc2)cc1-c1nc(N2CCN(C)CC2)nc2c1CNC(=O)N2c1c(F)cccc1F [Example 148] | 164 to 168 °C | – | statistically nonsignificant inhibition of neutrophilia | –
19 | CNC(=O)c1ccc(C)c(-c2nc(NCCCN(C)C)nc3c2CNC(=O)N3c2c(F)cccc2F)c1 [Example 166, 3-(8-(2,6-difluorophenyl)-2-{[3-(dimethylamino)propyl]amino}-7-oxo-5,6,7,8-tetrahydropyrimido[4,5-d]pyrimidin-4-yl)-N,4-dimethylbenzamide] | 164 to 167 °C (dec.) | – | statistically nonsignificant inhibition of neutrophilia | –
20 | CCN(CC)C(=O)c1ccc(C)c(-c2nc(NC3CCN(C)CC3)nc3c2CNC(=O)N3c2c(F)cccc2F)c1 [Example 159, 3-{8-(2,6-difluorophenyl)-2-[(1-methyl-4-piperidinyl)amino]-7-oxo-5,6,7,8-tetrahydropyrimido[4,5-dl-pyrimidin-4-yl}-N,N-diethyl-4-methylbenzamide] | 165 to 169 °C | – | – | > 100 nM
21 | Cc1ccc(C(=O)Nc2ccc(C)c(-c3nc(NC4CC(C)(C)NC(C)(C)C4)nc4c3CNC(=O)N4c3c(F)cccc3F)c2)cc1F [23(e), N-(3-{8-(2,6-difluorophenyl)-7-oxo-2-[(2,2,6,6-tetramethyl-4-piperidinyl)amino]-5,6,7,8-tetrahydropyrimido[4,5-d]pyrimidin-4-yl}-4-methylphenyl)-3-fluoro-4-methylbenzamide] | 220 °C (dec.) | active | statistically nonsignificant inhibition of neutrophilia | –
22 | Cc1ccc(C(=O)NCc2ccccc2)cc1-c1nc(N(C)CCCN(C)C)nc2c1CNC(=O)N2c1c(F)cccc1F [Example 17, 3-{8-(2,6-Difluorophenyl)-2-[[3-(dimethylamino)propyl](methyl)amino]-7-oxo-5,6,7,8-tetrahydropyrimido[4,5-d]pyrimidin-4-yl}-4-methyl-N-(phenylmethyl)benzamide] | 124 to 127 °C | – | statistically nonsignificant inhibition of neutrophilia | –
